Structures can show the parent of a compound that is named as a salt.
Test system: isolated rat aortic strips
Experiment: Contraction of Rat Aortic Strips (inhibition of calcium-induced contracture, calcium channel blocking activity)
Format: cell-based
Settings: for inhibition at 0.3 µM: Rattus norvegicus, 3×10^-7 M compound, 15 minutes prior to and during calcium curve, 2 mM Ca++, 45 mM potassium, as compared to the control, read-out: % Inhibition (effect on the 2mM Ca++ contracture); for reduction in responsiveness to / contracture at 2 mM Ca++ (in words): 3×10^-7 M, 15 minute exposure
Experimental: The calcium channel blocking activity of compounds of formula I was determined by measuring the effect of compounds of formula I on isolated rat aortic strips. Contraction of Rat Aortic Strips Aortas were excised from rats, placed in Krebs-Henseleit solution, modified so as to be calcium free, with a depolarized level of potassium (45 mM), and 0.02 mM EDTA. The aorta was then helically cut into a strip. This strip was then divided into four equal segments which were hung in isolated tissue chambers, attached to the appropriate tranducers and subjected to 500 mg basal tension. After a period of stabilization under these conditions, calcium was introduced into the bath and the tissues contracted in a concentration dependent manner. When no calcium is available in the bathing media, and the potential dependent calcium channels are opened by the high potassium level, contractility is dependent on the level of calcium introduced into the bath. By adding increments of calcium into the bath, a reproducible concentration-dependent contracture can be obtained. […] The number for untreated controls was derived by measuring contracture for two runs where calcium alone was added. […] The inhibition in contractile response at 2mMCa++was measured as a per cent inhibition as compared to the control.

With COc1ccc([C@H]2SC=C(c3ccccc3)N(CCN(C)C)C(=O)[C@H]2O)cc1 (racemic) [D, cis-rac.-6,7-Dihydro-6-hydroxy-7-(4-methoxyphenyl)-4[2-(dimethylamino)ethyl]-3-phenyl-1,4-thiazepin-5(4H)-one hydrochloride] the inhibition at 0.3 µM was -16.5%.

With COc1ccc([C@@H]2SC=C(c3ccccc3)N(CCN(C)C)C(=O)[C@H]2OC(C)=O)cc1 (racemic) [G, trans-rac.-6-(Acetyloxy)-6,7-dihydro-7-(4-methoxy-phenyl)-4-[2-(dimethylamino)ethyl]-3-phenyl-1,4-thiazepin-5(4H)-one hydrochloride] the inhibition at 0.3 µM was -8.4%.

For COc1ccc([C@@H]2SC=C(c3ccccc3)N(CCN(C)C)C(=O)[C@H]2O)cc1 (racemic) [H, trans-rac.-6,7-Dihydro-6-hydroxy-7-(4-methoxyphenyl) -4-[2-(dimethylamino)ethyl]-3-phenyl-1,4-thiazepin-5 (4H)-one (E)-2-butenedioate], the inhibition at 0.3 µM was -5.6%.

For COc1ccc([C@@H]2SC=C(c3ccccc3)N(CCN(C)C)C(=O)[C@@H]2OC)cc1 (relative stereo) [C, cis-rac.6,7-Dihydro-6-methoxy-7-(4-methoxyphenyl)-4[2-(dimethylamino)ethyl-3-phenyl-1,4-thiazepin-5(4H)-one hydrochloride], the inhibition at 0.3 µM was -22.1%.

Compound COc1ccc([C@@H]2SC=C(c3ccccc3)N(CCN(C)C)C(=O)[C@@H]2OC(C)=O)cc1 (relative stereo) [Compound B, cis-rac.6-(Acetyloxy)-6,7-dihydro-7-(4-methoxyphenyl) -4-[2-(dimethylamino)ethyl]-3-phenyl-1,4-thiazepin-5(4H)-one hydrochloride] has an inhibition at 0.3 µM of -26.8%.

With COc1ccc([C@@H]2SC=C(c3ccccc3)N(CCN(C)C)C(=O)[C@@H]2OC(C)=O)cc1 [Compound A, (+)-cis-6-(Acetyloxy)-6,7-dihydro-7-(4-methoxyphenyl) 4-[2-(dimethylamino)ethyl]-3-phenyl-1,4-thiazepin-5-(4H)-one hydrochloride] the “reduction in responsiveness to / contracture at 2 mM Ca++ (in words)” value was “inhibited almost two thirds of the contracture” and the inhibition at 0.3 µM was -63%.

For COc1ccc([C@@H]2Sc3ccccc3N(CCN(C)C)C(=O)[C@@H]2OC(C)=O)cc1 [Diltiazem, reference compound], the “reduction in responsiveness to / contracture at 2 mM Ca++ (in words)” value was “marked reduction in responsiveness” and the inhibition at 0.3 µM was -77%.

Compound COc1ccc([C@@H]2SC=C(c3ccccc3)N(CCN(C)C)C(=O)[C@@H]2O)cc1 [E] has an inhibition at 0.3 µM of -13%.

COc1ccc([C@H]2SC=C(c3ccccc3)N(CCN(C)C)C(=O)[C@H]2OC(C)=O)cc1 [F, (-)-cis-6-(Acetyloxy)-6,7-dihydro-7-(4-methoxyphenyl) -4-[2-(dimethylamino)ethyl]-3-phenyl-1,4-thiazepin-5 (4H)-one [S-(R,* R,*)]-2,3-dihydroxybutanedioic acid salt] gave an inhibition at 0.3 µM of -9.1%.

— patent US4992432A, “3-phenyl-thiazepinones as calcium regulating agents” (Hoffmann-La Roche Inc., priority 1990, dated 1991)
